Measurements taken from ChEMBL document CHEMBL1122421 (J Med Chem, 1983).

Target: Opioid receptor (Rattus norvegicus, UniProt P33533+P34975+P33535)
Assay: Binding affinity against opiate receptor from rat neural membranes, using [3H]dihydromorphine as radioligand

CN1CCC23c4c5ccc(O)c4O[C@H]2C(O)C=C[C@@]3(NC(=O)CBr)C1C5 (some centres not stated) gave an IC50 of 15 nM.

CN1CCC23c4c5ccc(O)c4O[C@H]2C(=O)C=C[C@@]3(NC(=O)CBr)C1C5 (some centres not stated) was tested, and the IC50 was 10 nM.
